How the values were obtained:
[1] = system: Jackson SPF or germ-free C57BL/6 WT mice; assay: Fecal short chain fatty acids and 5-ASA in SPF or germ-free mice treated with SAS or BSD; format: in vivo, mouse
Experimental: (§1) Gnotobiotic C57BL/6 wild-type (WT) mice were bred and maintained at WCM Gnotobiotic Mouse facility. Specific pathogen free (SPF) C57BL/6 WT mice were ordered from Jackson Laboratory. C57BL/6 Gpr109a^−/− mice were obtained from Marcel van den Brink laboratory and were bred and maintained under SPF conditions at WCM.
(§2) For induction of chemical colitis, 2% dextran sulfate sodium (DSS) (wt/vol) (M.W. 40,000-50,000; Affymetrix, Santa Clara, CA) was added to drinking water and administered ad libitum for 7 days. Mice were then monitored daily for weight loss and survival. Mouse Lipocalin-2 was measured in the cecal content supernatant using sandwich enzyme-linked immunosorbent assay (R&D Systems, Minneapolis, MN).
(§3) To determine drug fecal levels and its impact on fecal metabolites, fecal samples were treated with cold 80% methanol for 4 hours at 4° C. Samples were then centrifuged at 14,000 g for 20 min at 4° C. Supernatants were transferred to a sterile 1.5 ml tube and stored at-80° C. Bacterial supernatants were treated with 4X volume of the 80% methanol. Polar metabolomic analysis was performed by the WCM Proteomics and Metabolomics Core for target polar metabolomics analysis by LC-MS. Metabolites were identified using an in-house library established using chemical standards. Identification required exact mass (within 5ppm) and standard retention times. To determine short chain fatty acids (SCFAs) fecal levels, target metabolomics were performed using liquid chromatography-quadruple-time of flight mass spectrometry as previously described^62. Relative metabolite quantitation was performed based on peak area for each metabolite evaluated and normalized by sample weight.

DSS-induced colitis = DSS-induced colitis in SPF WT mice; format: in vivo, mouse; settings: 2% DSS 7 days, SAS 300 mg/kg/day
Experimental: as §1, §2
(§4) All animal experiments were performed with 6-8-week-old WT, Gpr109a^−/− and heterozygous littermate mice. Both female and male mice were used with random and equal assignment of same sex to each experimental group. All animal studies were carried out in accordance with protocols approved by the Institutional Animal Care and Use Committee at WCM.

[2] = system: fecal samples of IBD-pSpA subjects; assay: Fecal metabolomics of IBD-pSpA subjects treated with SAS; format: in vivo, human; settings: responders
Experimental: as §3

[3] = system: patients with a clinical diagnosis of IBD and ASAS-defined SpA; assay: Prospective clinical study of SAS therapy in IBD-pSpA subjects (BASDAI, ASDAS, HBI, CRP); format: in vivo, human; parameters: proportion of treated patients who tolerated increase: dose or concentration left out as unconfirmed
Description: Eligible patients of any gender were between the ages of 18-80 with ulcerative colitis (UC) or Crohn's disease (CD) and ASAS criteria of pSpA defined as the presence of peripheral arthritis, enthesitis or dactylitis^50. Patients with active SpA, defined as ASDAS>1.3 and/or BASDAI≥4, were eligible to participate^51, 52. […] Participants who declined therapy or were intolerant of SAS were followed as standard of care controls. […] All patients provided voluntary informed consent and the study ethics was approved by the Weill Cornell institutional review board (IRB 1504016115).
The primary endpoint of our analysis was clinical response in BASDAI, defined conservatively as a reduction in BASDAI of >2. Secondary endpoints were clinical response in ASDAS and Harvey Bradshaw Index (HBI) for CD defined as reduction in ASDAS of ≥1.1 at week 12 post-study initiation^51 or a decrease in HBI of ≥3^54, respectively. Exploratory analysis included absolute reduction in BASDAI, ASDAS, CRP, and HBI.
To determine significance of […] variables, Student's t test was applied if two groups were compared, otherwise two-way ANOVA test was used. For non-parametric data, Wilcoxon matched-pairs signed-rank test was calculated when paired analyses were carried, otherwise Mann-Whitney test was applied. If required, Bonferroni or Tukey tests were applied for multiple comparison correction. Metagenomic and transcriptomic analyses were performed in R studio (Boston, MA) using R package ‘phyloseq’^66 and plots were constructed in ‘ggplot2’ or GraphPad (San Diego, CA). Differential gene expression analysis was performed with DESeq2^72. Differential taxa or pathway abundance was assessed using linear discriminant analysis (LDA) effect size (LEfSe)^31. Correlation between two continuous variables (e.g. fecal drug levels, Δ BASDAI, alpha diversity) was determined with linear regression models. For discriminating responders from non-responders, we fit linear regression models on the relative abundances of select taxa and constructed corresponding ROC curves. Area under the curve (AUC) and P values were computed using R.

[4] = system: gnotobiotic mice colonized with IBD-pSpA donor microbiomes; assay: Gnotobiotic mice colonized with responder or non-responder microbiomes: fecal butyrate and DSS colitis; format: in vivo, mouse
Experimental: as §1, §2
For gnotobiotic experiments, germ-free (GF) mice were gavaged with 1 g of homogenized patient fecal samples diluted in 10 ml of reduced PBS under anaerobic conditions, as previously described^53. Mice gavaged with ATCC 27768 F. prausnitzii received 1×10^9 colony forming units (CFU) grown under anaerobic conditions at log-phase in Yeast Casitone Fatty Acids Broth with Carbohydrate media (YCFAC, Anaerobe Systems, Morgan Hill, CA).
as §3

[5] = system: butyrate receptor Gpr109a; assay: DSS-induced colitis in Gpr109a-deficient and heterozygous mice; format: in vivo, mouse
Experimental: as §1, §2, §4

E. rectale DSM 17629 = assay: E. rectale in vitro culture with sulfapyridine (but expression); format: cell-based, Eubacterium rectale; settings: SP 1 mM
Experimental: (§5) CFU from F. prausnitzii cultures were assessed anaerobically in YCFA agar. Growth was measured by absorbance, OD600, on SpectraMax Plus (Molecular Devices, San Jose, CA). RNA isolation was performed using RNeasy PowerMicrobiome kit (Qiagen, Hilden, Germany) following the manufacture instructions. RNA was then quantified by Nanodrop prior to reverse transcription with qScript cDNA SuperMix kit (Quantabio, Beverly, MA) or RNAseq library preparation.
(§6) qPCR was performed on an Applied BioSciences Quant Studio 6 Flex Real-time PCR (Applied Biosystems, Waltham, MA) using PerfeCTa SYBR Green Fast mix, Low ROX (Quantabio, Beverly, MA). The following primers were used: for 16S rRNA gene −515F 5′ […] 3′ (SEQ ID NO:1), −926R 5′ […] 3′ (SEQ ID NO:2)^71 F. prausnitzii but gene F: 5′ […] 3′ SEQ ID NO:3), R: 5′ […] 3′ (SEQ ID NO:4) and E. rectale but gene F: 5′ […] 3′, SEQ ID NO:5) R: 5′ […] 3′ (SEQ ID NO:6) (designed on the PrimerQuest Tool from IDT, Coralville, IA). The thermocycler program was as follows: initial cycle of 95° C. for 60 s, followed by 40 PCR cycles at 95° C. for 5 s, 60° C. for 15 s, 72° C. for 15 s. Relative levels of the but target gene was determined by calculating the Δ Ct to the conserved 16S rRNA gene expression.

[6] = system: F. prausnitzii ATCC 27768; assay: F. prausnitzii in vitro culture with sulfapyridine (growth, RNA-seq, qPCR, mass spectrometry); format: cell-based, Faecalibacterium prausnitzii
Experimental: as §3, §5
RNA-seq library preparation and sequencing were performed by WCM Genomics Core. For library preparation, the Illumina Stranded Total RNA Prep kit was used. High-throughput sequencing was performed using the PE 2×50 cycles protocol in the NovaSeq 6000 Illumina platform targeting 10 million reads/sample. Bioinformatics and statistical analysis were then performed by the WCM Bioinformatics Core. Samples were aligned with STAR^67 to NCBI reference genome GCF_000154385.1 (F. prausnitzii M21/2). Quality control was performed with QoRTs^68 on aligned BAM files. Counts per gene were then calculated using featureCounts^69. BioCyc^70 analyses were performed with clusterProfiler to identify pathways/gene sets that are overrepresented among the differentially expressed genes.
as §6

[7] = SPF WT mice, 300 mg/kg/day, day 14
[8] = RNA-seq, SP 1 mM vs NaOH vehicle

O=C(O)CCNC(=O)c1ccc(/N=N/c2ccc(O)c(C(=O)O)c2)cc1 [BSD, balsalazide]
fecal butyrate levels compared to H2O vehicle controls [1, 7]: numerically higher | conversion of prodrug by the mouse gut microbiome (5-ASA detection in fecal samples) ([1]; SPF mice, day 7 post-treatment initiation): efficiently converted

O=C(O)c1cc(/N=N/c2ccc(S(=O)(=O)Nc3ccccn3)cc2)ccc1O [SAS, sulfasalazine]
cecal lipocalin compared to control treated mice (DSS-induced colitis): reduced | mortality compared to control treated mice (DSS-induced colitis): significantly reduced | weight loss compared to control treated mice (DSS-induced colitis): attenuated | thymine fecal abundance after SAS treatment ([2]; P=.016): significantly reduced | fecal deoxyuridine levels after SAS treatment ([2]; P=.05): concomitant increase | proportion of treated patients who tolerated increase ([3]; 22 patients treated with SAS, n=11): 50% | absolute score reduction in BASDAI compared to controls ([3]; baseline to week 12): significant absolute score reduction | difference in CRP alone compared to controls ([3]; baseline to week 12): no difference | reduction in all joint disease activity scores, 2 mg versus 4 mg daily ([3]; comparison between SAS doses): equivalent reduction | impact of baseline biologic or mesalamine therapy on change in disease activity scores following SAS treatment ([3]; human, in vivo): did not impact | proportion with clinical improvement using ASDAS ([3]; week 12, controls 0%, P=.07): 28.6% | proportion of patients achieving clinical response in joint symptoms (reduction in BASDAI of >2) ([3]; week 12, controls 9.1%, P=.04): 45.4% | fecal butyrate levels post-treatment ([1]; GF mice): no changes | fecal acetate [1, 7]: no significant change | fecal butyrate levels compared to H2O vehicle controls [1, 7]: significant increase | fecal propionate [1, 7]: no significant change | abundance of fecal butyrate following SAS treatment ([4]; mice colonized with non-responder microbiome): not changed | abundance of fecal butyrate following SAS treatment ([4]; mice colonized with responder microbiomes): higher abundance | weight loss ([4]; non-responder microbiomes, DSS): not responsive | intestinal inflammation measured by lipocalin ([4]; responder microbiomes, DSS): reduced | weight loss ([4]; responder microbiomes, DSS): reduced | inflammation measured by lipocalin ([5]; mice deficient for Gpr109a): no effect | survival ([5]; mice deficient for Gpr109a): no effect | weight loss ([5]; mice deficient for Gpr109a): no effect | intestinal inflammation measured by cecal lipocalin ([5]; mice heterozygous for Gpr109a): decreased intestinal inflammation | survival ([5]; mice heterozygous for Gpr109a): significantly improved | weight loss ([5]; mice heterozygous for Gpr109a): reduced weight loss

Nc1ccc(S(=O)(=O)Nc2ccccn2)cc1 [SP, sulfapyridine]
expression of but in E. rectale (E. rectale DSM 17629): did not change | effect of dose on F. prausnitzii growth ([6]; 1 mM, anaerobic culture): sub-inhibitory | folT (folate ECF transporter S component FolT) expression ([6]; RNA-seq, SP 1 mM): upregulation | acetate kinase (ackA) expression [6, 8]: downregulation | but expression [6, 8]: concomitant increase | phosphate acetyltransferase (pta) expression [6, 8]: downregulation | thymidine kinase expression ([6]; bacterial cultures with SP): significant increase | thymine metabolites ([6]; bacterial cultures with SP): corresponding decrease | butyrate production ([6]; mass spectrometry after 22 and 46 hours of culture, both timepoints): robustly increased | induction of but in response to SP on supplementation with folate ([6]; qPCR, SP plus folate 566 μM): abrogated
